Measured values as given in patent US11292798B2, “Merocyanine-based compound and biomolecular labeling dye, kit and contrast agent composition comprising same” (SFC CO., LTD., priority 2017, dated 2022).

Experiment: absorption spectrum, light emission spectrum, molecular extinction coefficient and quantum efficiency in solvents
Format: physicochemical

## CC1(C)C2=C3C=C(C(=O)CCCC(=O)[O-])C(=O)OC3CCN2c2ccc3cc(S(=O)(=O)[O-])ccc3c21.[Na+].[Na+] (centres unmarked) [Compound 16]
Solvent CH2Cl2
  ε (molecular extinction coefficient): 49,000 Lmol^−1cm^−1
  λem: 515 nm
  λex: 488 nm
  φ (quantum efficiency): 0.137
Solvent DMSO
  ε (molecular extinction coefficient): 47,000 Lmol^−1cm^−1
  λem: 519 nm
  λex: 494 nm
  φ (quantum efficiency): 0.935
Solvent EtOH
  ε (molecular extinction coefficient): 47,000 Lmol^−1cm^−1
  λem: 516 nm
  λex: 490 nm
  φ (quantum efficiency): 0.872
Solvent H2O
  ε (molecular extinction coefficient): 48,000 Lmol^−1cm^−1
  λem: 516 nm
  λex: 492 nm
  φ (quantum efficiency): 0.405
Solvent PBS
  ε (molecular extinction coefficient): 51,000 Lmol^−1cm^−1
  λem: 516 nm
  λex: 492 nm
  φ (quantum efficiency): 0.417

## COC(=O)C1=CC2=C3N(CCC2OC1=O)c1cc2c(cc1C3(C)C)-c1ccccc1C2(C)C (centres unmarked) [Compound 60]
Solvent CH2Cl2
  ε (molecular extinction coefficient): 41,000 Lmol^−1cm^−1
  λem: 511 nm
  λex: 470 nm
Solvent DMSO
  ε (molecular extinction coefficient): 42,000 Lmol^−1cm^−1
  λem: 513 nm
  λex: 476 nm
Solvent EtOH
  ε (molecular extinction coefficient): 42,000 Lmol^−1cm^−1
  λem: 519 nm
  λex: 474 nm
Solvent H2O
  ε (molecular extinction coefficient): 38,000 Lmol^−1cm^−1
  λem: 523 nm
  λex: 476 nm

## CC1(C)C2=C3C=C(CC(=O)[O-])C(=O)OC3CCN2c2ccc(S(=O)(=O)[O-])cc21.[Na+].[Na+] (centres unmarked) [Compound 64]
Solvent CH2Cl2
  ε (molecular extinction coefficient): 22,000 Lmol^−1cm^−1
  λem: 468 nm
  λex: 414 nm
  φ (quantum efficiency): 0.01
Solvent DMSO
  ε (molecular extinction coefficient): 26,000 Lmol^−1cm^−1
  λem: 472 nm
  λex: 412 nm
  φ (quantum efficiency): 0.84
Solvent EtOH
  ε (molecular extinction coefficient): 28,000 Lmol^−1cm^−1
  λem: 483 nm
  λex: 408 nm
  φ (quantum efficiency): 0.78
Solvent H2O
  ε (molecular extinction coefficient): 26,000 Lmol^−1cm^−1
  λem: 500 nm
  λex: 422 nm
  φ (quantum efficiency): 0.91
Solvent PBS
  ε (molecular extinction coefficient): 27,000 Lmol^−1cm^−1
  λem: 503 nm
  λex: 423 nm
  φ (quantum efficiency): 0.95

## CC1(C)C2=C3C=C(C(=O)O)C(=O)OC3CCN2c2cc3c(cc21)-c1ccccc1C3(C)C (centres unmarked) [Compound 61]
Solvent CH2Cl2
  ε (molecular extinction coefficient): 46,000 Lmol^−1cm^−1
  λem: 522 nm
  λex: 484 nm
Solvent DMSO
  ε (molecular extinction coefficient): 47,000 Lmol^−1cm^−1
  λem: 525 nm
  λex: 480 nm
Solvent EtOH
  ε (molecular extinction coefficient): 49,000 Lmol^−1cm^−1
  λem: 525 nm
  λex: 480 nm
Solvent H2O
  ε (molecular extinction coefficient): 46,000 Lmol^−1cm^−1
  λem: 516 nm
  λex: 468 nm
Solvent PBS
  ε (molecular extinction coefficient): 46,000 Lmol^−1cm^−1
  λem: 518 nm
  λex: 468 nm

## CC(=O)C1=CC2=C3N(CCC2OC1=O)c1ccc2ccccc2c1C3(C)C (centres unmarked) [Compound 9]
Solvent DMSO
  ε (molecular extinction coefficient): 47,000 Lmol^−1cm^−1
  λem: 516 nm
  λex: 492 nm
  φ (quantum efficiency): 0.910

## CC1(C)C2=C3C=C(C(=O)[O-])C(=O)OC3CCN2c2ccc(S(=O)(=O)[O-])cc21.[Na+].[Na+] (centres unmarked) [Compound 2]
Solvent CH2Cl2
  ε (molecular extinction coefficient): 20,000 Lmol^−1cm^−1
  λem: 495 nm
  λex: 429 nm
  φ (quantum efficiency): 0.169
Solvent DMSO
  ε (molecular extinction coefficient): 30,000 Lmol^−1cm^−1
  λem: 500 nm
  λex: 468 nm
  φ (quantum efficiency): 0.768
Solvent H2O
  ε (molecular extinction coefficient): 45,000 Lmol^−1cm^−1
  λem: 489 nm
  λex: 453 nm
  φ (quantum efficiency): 0.718
Solvent MeOH
  ε (molecular extinction coefficient): 50,000 Lmol^−1cm^−1
  λem: 493 nm
  λex: 463 nm
  φ (quantum efficiency): 0.625
Solvent PBS
  ε (molecular extinction coefficient): 44,000 Lmol^−1cm^−1
  λem: 487 nm
  λex: 451 nm
  φ (quantum efficiency): 0.796

## CC1(C)C2=C3C=C(C(=O)[O-])C(=O)OC3CCN2c2ccccc21.[Na+] (centres unmarked) [Compound 5]
Solvent DMSO
  ε (molecular extinction coefficient): 49,000 Lmol^−1cm^−1
  λem: 490 nm
  λex: 466 nm
  φ (quantum efficiency): 0.913
Solvent EtOH
  ε (molecular extinction coefficient): 51,000 Lmol^−1cm^−1
  λem: 485 nm
  λex: 462 nm
  φ (quantum efficiency): 0.412
Solvent H2O
  ε (molecular extinction coefficient): 50,000 Lmol^−1cm^−1
  λem: 483 nm
  λex: 452 nm
  φ (quantum efficiency): 0.062
Solvent PBS
  ε (molecular extinction coefficient): 49,000 Lmol^−1cm^−1
  λem: 483 nm
  λex: 454 nm
  φ (quantum efficiency): 0.633

## CCOC(=O)CCCC(=O)C1=CC2=C3N(CCC2OC1=O)c1ccc2ccccc2c1C3(C)C (centres unmarked) [Compound 62]
Solvent CH2Cl2
  ε (molecular extinction coefficient): 42,000 Lmol^−1cm^−1
  λem: 511 nm
  λex: 486 nm
  φ (quantum efficiency): 0.944
Solvent DMSO
  ε (molecular extinction coefficient): 46,000 Lmol^−1cm^−1
  λem: 516 nm
  λex: 492 nm
  φ (quantum efficiency): 0.958
Solvent EtOH
  ε (molecular extinction coefficient): 47,000 Lmol^−1cm^−1
  λem: 516 nm
  λex: 486 nm
  φ (quantum efficiency): 0.820
Solvent H2O
  ε (molecular extinction coefficient): 26,000 Lmol^−1cm^−1
  λem: 520 nm
  λex: 468 nm
  φ (quantum efficiency): 0.194
Solvent PBS
  ε (molecular extinction coefficient): 29,000 Lmol^−1cm^−1
  λem: 520 nm
  λex: 486 nm
  φ (quantum efficiency): 0.193

## CC1(C)C2=C3C=C(CC(=O)O)C(=O)OC3CCN2c2ccccc21 (centres unmarked) [Compound 63]
Solvent CH2Cl2
  ε (molecular extinction coefficient): 15,000 Lmol^−1cm^−1
  λem: 466 nm
  λex: 414 nm
Solvent DMSO
  ε (molecular extinction coefficient): 15,000 Lmol^−1cm^−1
  λem: 470 nm
  λex: 416 nm
Solvent EtOH
  ε (molecular extinction coefficient): 15,000 Lmol^−1cm^−1
  λem: 485 nm
  λex: 416 nm
Solvent H2O
  ε (molecular extinction coefficient): 17,000 Lmol^−1cm^−1
  λem: 506 nm
  λex: 432 nm
Solvent PBS
  ε (molecular extinction coefficient): 17,000 Lmol^−1cm^−1
  λem: 507 nm
  λex: 434 nm

## COC(=O)C1=CC2=C3N(CCC2OC1=O)c1ccccc1C3(C)C (centres unmarked) [Compound 1]
Solvent DMSO
  ε (molecular extinction coefficient): 63,000 Lmol^−1cm^−1
  λem: 479 nm
  λex: 456 nm
  φ (quantum efficiency): 0.900

## CC1(C)C2=C3C=CC(=O)OC3CCN2c2ccc(S(=O)(=O)[O-])cc21.[Na+] (centres unmarked) [Compound 3]
Solvent CH2Cl2
  ε (molecular extinction coefficient): 22,000 Lmol^−1cm^−1
  λem: 464 nm
  λex: 403 nm
  φ (quantum efficiency): 0.227
Solvent DMSO
  ε (molecular extinction coefficient): 27,000 Lmol^−1cm^−1
  λem: 470 nm
  λex: 416 nm
  φ (quantum efficiency): 0.645
Solvent H2O
  ε (molecular extinction coefficient): 28,000 Lmol^−1cm^−1
  λem: 492 nm
  λex: 423 nm
  φ (quantum efficiency): 0.764
Solvent MeOH
  ε (molecular extinction coefficient): 27,000 Lmol^−1cm^−1
  λem: 484 nm
  λex: 410 nm
  φ (quantum efficiency): 0.667
Solvent PBS
  ε (molecular extinction coefficient): 28,000 Lmol^−1cm^−1
  λem: 492 nm
  λex: 423 nm
  φ (quantum efficiency): 0.759

## COC(=O)C1=CC2=C3N(CCC2OC1=O)c1ccc2ccccc2c1C3(C)C (centres unmarked) [Compound 6]
Solvent DMSO
  ε (molecular extinction coefficient): 53,000 Lmol^−1cm^−1
  λem: 503 nm
  λex: 474 nm
  φ (quantum efficiency): 0.928
